US9051351B2, “Hepatocyte growth factor mimics as therapeutic agents” (Washington State University, priority 2011, dated 2015)
“Also recorded” adds a separate entry of the source. Where a SMILES comes first, the peptide text is derived from it. [ ]: non-standard residue; d: D form. The star is where a group is joined. Hexanoyl = CCCCCC(=O)*; Ahx = NCCCCCC(=O)O

Tests used:
[1] = test system: hippocampal neurons; experiment: Dendritic spine counts (spinogenesis) in mRFP-β-actin transfected dissociated hippocampal neurons; assay type: cell-based, rat
[2] = test system: aged rats; experiment: Morris water maze, aged rat model; assay type: in vivo; settings: aged rats of mixed sex, Dihexa oral 2 mg/kg/day, 8 days
Protocol: Swim speed was determined from these values.
The aged rat study employed 24 month old rats of mixed sex. […] The guide was then sealed with a thick stainless steel wire.

[3] = in vitro; settings: male, rat, microsomes, pH 7.38
[4] = test system: c-Met; experiment: Augmentation of HGF-dependent c-Met phosphorylation in HEK293 cells; assay type: cell-based, human; settings: HEK 293 cells, HGF+/−Dihexa, 30 minutes
Protocol: HGF mimetic activity was typically assessed by one or both of two methods: augmentation of HGF-dependent c-Met phosphorylation in HEK293 cells, or 2) augmentation of HGF-dependent cell scattering in MDCK cells. All the compounds in Family one were tested using the c-Met phosphorylation assay. […]
Human embryonic kidney cells 293 (HEK293), Madin Darby canine kidney cells (MDCK), and B16F10 murine melanoma cells were grown in DMEM, 10% fetal bovine serum (FBS). Cells were grown to 90-100% confluency before use. For most but not all studies HEK and MDCK cells were serum starved for 24 hours prior to the initiation of drug treatment.
HEK293 cells were seeded in 6 well tissue culture plates and grown to 95% confluency in DMEM containing 10% FBS. […] The lysate was clarified by centrifugation at 15,000 g for 15 minutes, protein concentrations were determined using the BCA total protein assay, and then appropriate volumes of the lysates were diluted with 2× reducing Laemmli buffer and heated for ten minutes at 95° C. […] Proteins were visualized using the Supersignal West Pico Chemiluminescent Substrate system (Pierce, Fenton, Mo.) and molecular weights determined by comparison to protein ladders (BenchMark, Invitrogen; and Kaleidoscope, BioRad). Images were digitized and analyzed using a UVP phosphoimager.

[5] = test system: hippocampal neurons; experiment: Whole-cell recordings of mEPSCs in dissociated hippocampal neurons; assay type: cell-based, rat; settings: 10^−12 M, 5 days
[6] = test system: hippocampal neurons; experiment: Growth factor deprivation of dissociated hippocampal neurons; assay type: cell-based; settings: starved 72 hrs +/− HGF 5 ng/ml and/or Dihexa
Protocol: FIG. 46. […] Dissociated hippocampal neurons were starved for 72 hrs+/−HGF at sub-threshold concentrations 5 ng/ml and or Dihexa at 2 different concentrations 10^−8M and […]. (**p<0.001,*** p<0.0001; Mean+/−SEM).

In the case of CCCCCC(=O)N[C@@H](Cc1ccc(O)cc1)C(=O)N[C@H](C(=O)NCCCCCC(N)=O)[C@@H](C)CC [Dihexa, N-hexanoic-Tyr-Ile-(6)-aminohexanoic amide] (Hexanoyl-Tyr-Ile-[Ahx]-NH2), the “increase in the number of spines” value ([1]; 10^−12 M, 5 day treatment, vs vehicle) was about 3 fold, the “mean spine numbers per 50 μm dendrite length” value ([1]; 10^−12 M, acute 30 minute application on DIV12) was 23.9 spines per 50 μm dendrite leng and the “mean spine numbers per 50 μm dendrite length” value ([1]; neurons transfected with mRFP-β-actin alone, HGF 10 ng/ml, Dihexa or Nle1-AngIV 10^−12 M, 48 hours) was 21.8 spines per 50 μm dendrite leng. The “mean spine numbers per 50 μm dendrite length” value ([1]; neurons transfected with mRFP-β-actin and shMet (c-Met knock-down), HGF 10 ng/ml, Dihexa or Nle1-AngIV 10^−12 M) was 12.0 spines per 50 μm dendrite leng, the “latency to find the pedestal in the water maze” value [2] was “preformed significantly better in the water maze than untreated rats; also recorded: performed significantly better than untreated controls” and the “latency to find the pedestal in the water maze” value ([2]; listed as dihexa) was “significantly improved performance; also recorded: significantly different than that of the non-treated rats”. The half-life at 5 µM [3] was 8.49 h, the microsomal CLint at 5 µM [3] was 2.72 µL/min/mg and the “augmentation of HGF activation (phosphorylation) of c-Met” value [4] was “dramatically augment the ability of HGF to activate c-Met; also recorded: markedly augments the ability of HGF to signal to c-Met; also recorded: work synergistically to activate c-Met”. The “frequency of AMPA-mediated mEPSCs” value [5] was 4.82±0.34 Hz, the “increase in mEPSC frequency over control” value [5] was 1.6 fold and the “protection of neurons from growth factor deprivation” value [6] was “act synergistically to protect neurons; also recorded: protects neurons from growth factor deprivation”.
